In general, DC50 refers to the concentration at which degradation of the target reaches its halfway point. High values mean a less potent degrader, low ones a more potent degrader. Broadly, the Dmax is the largest share of the target that was removed. Read a high Dmax as deep degradation.

The values that follow come from patent US20240190841A1, “MODULATORS OF BCL6 PROTEOLYSIS AND ASSOCIATED METHODS OF USE” (Arvinas Operations, Inc., priority 2022, published 2024).

For the test, the target named is T1, BCL6 (Homo sapiens, UniProt P41182).
T1 construct: endogenous in cells; host or cells: T47D breast cancer epithelial cells
Nature of the test: Immunofluorescence high content imaging of BCL6 degradation in T47D cells. It counts as cell-based. Conditions: T47D breast cancer epithelial cells, 3 days incubation. Here is the method:
Immunofluorescence Protocol for High Content Imaging of BCL6
T47D cells were seeded in 100 μl volume of RPMI11640-10% FBS in a 96-well black/clear bottom plates for adherent lines (Corning #3904).
Day 1. T47D breast cancer epithelial cells were seeded at a density so that confluence is ˜70-90% at endpoint. Cells were seeded at 7K/0.1 mL/well the morning prior to the addition of exemplary bifunctional degradation compounds.
Day 2. Prepare an 11 point 3-fold serial dilution of exemplary bifunctional compound in DMSO and aliquot an appropriate volume to cell growth media to generate a 2× final concentration of exemplary bifunctional compound. Add an equal volume (0.1 ml) of 2× exemplary bifunctional compound/media mix to previously plated cells, for a final top concentration in aqueous cell growth media of 0.1 or 1 μM. Incubate for 3 days at 37° C., 5% CO2.
Day 5 Immunofluorescence. Discard cell media. Wash wells with 200 μl of room temperature phosphate-buffered saline (PBS). Prepared 4% paraformaldehyde (PFA) from 16% PFA (Electron Microscopy Sciences #15710) using 1×PBS. Fifty μL of 4% PF was added to each well and incubate for 15 minutes at room temperature to fix the cells. The PFA was aspirated and the cells washed twice with PBS (200 μL)).
Prepared 0.1% Triton X-100 in PBS using 10% triton X-100 stock. The cells were permeabilized by adding 100 μL of the 0.1% Triton X-100 in PBS to each well to permeabilize cells and incubating at room temperature for 15 minutes. Cells were washed twice with PBS.
Prepared 3% BSA/PBS (from Thermofisher #37515 Blocker BSA in TBS, 10%), and 100 μL was added to each well. The cells were incubated for at least 1 hour at room temperature.
Prepared 1% BSA/PBS using Blocker BSA/PBS, and the 3% BSA/PBS removed from the wells.
For no primary antibody controls, 50 μL 1% BSA/PBS was added.
Primary antibody (BCL6 Rb Ab, CST-14895, Cell Signaling) was diluted 1:300 in 1% BSA/PBS using Blocker BSA/PBS.
Fifty μl of primary antibody added to all remaining wells (i.e., all wells other than the primary antibody controls) and the cells were incubated overnight at 4° C. with slow orbital movement.
Day 6. Contents of the wells was removed and the cells washed four times with 200 μL PBS. 1% BSA/PBS was prepared using Blocker BSA in PBS.
Diluted secondary antibody goat anti-Rb IgG Alexa-488 1:1000, and cell mask-Alexa-647 1:3000 in 1% BSA/PBS in the same mix. Add 50 μL to each well and incubate at room temperature for 1 hour in the dark.
Cells were washed three times with 200 μL PBS, and then incubated for 10 minutes with 100 μL Hoechst dye at 1 μg/mL (20 mM stock) to stain cell nuclei. Wells were then washed with 200 μl PBS, and 100 μL of PBS was added to each well and the plate covered plate with a plastic opaque cover. Plates were stored at […] and covered in aluminum foil until imaged.
Plates were equilibrated to room temperature prior to reading. The bottom of the plate was wiped with 70% isopropanol immediately prior to imaging.
Imaging: • 10×, 4 fields/well, include Top hat smoothing in the analysis protocol.
Supplies/Reagents: • 16% paraformaldehyde: Electron Microscopy Sciences #15710 • Hoechst: Thermofisher #62249 • Blocker BSA in PBS, 10%: Thermofisher #37515 • Blocker BSA in TBS, 10%: Thermofisher #37520 • Goat anti-rabbit or mouse AlexaFluor-488: Thermofisher #A11008 • Cell mask deep red AlexaFluor-647: Thermofisher #C10046 • Wash buffer, PBS: 20×PBS, Thermofisher
In turn, `CNC(=O)COc1cc2cc(Nc3nc(N4CCC(O[C@H]5C[C@H](N6CCN(c7ccc8nn(C9CCC(=O)NC9=O)cc8c7)CC6)C5)CC4)ncc3Cl)ccc2n(C(C)C)c1=O` (stereo partly drawn) [Compound 22, 2-({6-[(5-chloro-2-{4-[(1r,3r)-3-{4-[2-(2,6-dioxopiperidin-3-yl)-2H-indazol-5-yl]piperazin-1-yl}cyclobutoxy]piperidin-1-yl}pyrimidin-4-yl)amino]-2-oxo-1-(propan-2-yl)-1,2-dihydroquinolin-3-yl}oxy)-N-methylacetamide] gave a half-maximal degradation concentration (DC50) of 10 to 50 nM and a Dmax of 50 to 70%.

With `CNC(=O)COc1cc2cc(Nc3nc(N4CCC(O[C@H]5C[C@H](N6CCN(c7cccc8c7n(C)c(=O)n8C7CCC(=O)NC7=O)CC6)C5)CC4)ncc3Cl)ccc2n(C(C)C)c1=O` (stereo partly drawn) [Compound 2, 2-({6-[(5-chloro-2-{4-[(1r,3r)-3-{4-[1-(2,6-dioxopiperidin-3-yl)-3-methyl-2-oxo-2,3-dihydro-1H-1,3-benzodiazol-4-yl]piperazin-1-yl}cyclobutoxy]piperidin-1-yl}pyrimidin-4-yl)amino]-2-oxo-1-(propan-2-yl)-1,2-dihydroquinolin-3-yl}oxy)-N-methylacetamide], the half-maximal degradation concentration (DC50) was under 10 nM and the Dmax is at least 70%.

`CNC(=O)COc1cc2cc(Nc3nc(N4CCC(CN5CCC(N6CCN(c7ccc8c(c7F)CN(C7CCC(=O)NC7=O)C8=O)CC6)C(F)(F)C5)CC4)ncc3Cl)ccc2n(C(C)C)c1=O` (stereo not drawn) [Compound 42, 2-({6-[(5-chloro-2-{4-[(4-{4-[2-(2,6-dioxopiperidin-3-yl)-4-fluoro-1-oxo-3H-isoindol-5-yl]piperazin-1-yl}-3,3-difluoropiperidin-1-yl)methyl]piperidin-1-yl}pyrimidin-4-yl)amino]-1-isopropyl-2-oxoquinolin-3-yl}oxy)-N-methylacetamide] registered a DC50 of under 10 nM and a maximal degradation (Dmax) of 50 to 70%.

In turn, `CNC(=O)COc1cc2cc(Nc3nc(N4CCC(O[C@H]5C[C@H](N6CCN(c7ccc8c(c7Cl)[C@@H](C)N([C@@H]7CCC(=O)NC7=O)C8=O)[C@H](C)C6)C5)CC4)ncc3Cl)ccc2n(C(C)C)c1=O` (single isomer, unassigned) [Compound 33] showed a half-maximal degradation concentration (DC50) of under 10 nM and a Dmax of at least 70%.

For `CNC(=O)COc1cc2cc(Nc3nc(N4CCC(O[C@H]5C[C@H](N6CCN(c7cc8c(cn7)n(C7CCC(=O)NC7=O)c(=O)n8C)CC6)C5)CC4)ncc3Cl)ccc2n(C(C)C)c1=O` (stereo partly drawn) [Compound 14, 2-({6-[(5-chloro-2-{4-[(1r,3r)-3-{4-[3-(2,6-dioxopiperidin-3-yl)-1-methyl-2-oxo-1H,2H,3H-imidazo[4,5-c]pyridin-6-yl]piperazin-1-yl}cyclobutoxy]piperidin-1-yl}pyrimidin-4-yl)amino]-2-oxo-1-(propan-2-yl)-1,2-dihydroquinolin-3-yl}oxy)-N-methylacetamide], the 50% degradation concentration (DC50) was under 10 nM and the Dmax lay in the range of 50 to 70%.

As for `CNC(=O)COc1cc2cc(Nc3nc(N4CCC(O[C@H]5C[C@H](N6CCC(c7cc(C)c8c(c7)CN(C7CCC(=O)NC7=O)C8=O)CC6)C5)CC4)ncc3Cl)ccc2n(C(C)C)c1=O` (stereo partly drawn) [Compound 37, 2-({6-[(5-chloro-2-{4-[(1r,3r)-3-{4-[2-(2,6-dioxopiperidin-3-yl)-7-methyl-1-oxo-3H-isoindol-5-yl]piperidin-1-yl}cyclobutoxy]piperidin-1-yl}pyrimidin-4-yl)amino]-1-isopropyl-2-oxoquinolin-3-yl}oxy)-N-methylacetamide], the half-maximal degradation concentration (DC50) was under 10 nM and the greatest degradation seen (Dmax) is at least 70%.

`CNC(=O)COc1cc2cc(Nc3nc(N4CCC(O[C@H]5C[C@H](N6CCN(c7cc8c(cc7OC)n(C7CCC(=O)NC7=O)c(=O)n8C)CC6)C5)CC4)ncc3Cl)ccc2n(C(C)C)c1=O` (stereo partly drawn) [Compound 15, 2-({6-[(5-chloro-2-{4-[(1r,3r)-3-{4-[1-(2,6-dioxopiperidin-3-yl)-6-methoxy-3-methyl-2-oxo-2,3-dihydro-1H-1,3-benzodiazol-5-yl]piperazin-1-yl}cyclobutoxy]piperidin-1-yl}pyrimidin-4-yl)amino]-2-oxo-1-(propan-2-yl)-1,2-dihydroquinolin-3-yl}oxy)-N-methylacetamide] registered a DC50 of under 10 nM and a Dmax of 50 to 70%.

In turn, `CNC(=O)COc1cc2cc(Nc3nc(N4CCC(O[C@H]5C[C@H](N6CCN(c7ccc8ncn(C9CCC(=O)NC9=O)c8c7)CC6)C5)CC4)ncc3Cl)ccc2n(C(C)C)c1=O` (stereo partly drawn) [Compound 24, 2-({6-[(5-chloro-2-{4-[(1r,3r)-3-{4-[1-(2,6-dioxopiperidin-3-yl)-1H-1,3-benzodiazol-6-yl]piperazin-1-yl}cyclobutoxy]piperidin-1-yl}pyrimidin-4-yl)amino]-2-oxo-1-(propan-2-yl)-1,2-dihydroquinolin-3-yl}oxy)-N-methylacetamide] returned a DC50 of under 10 nM and a Dmax of at least 70%.

As to `CNC(=O)COc1cc2cc(Nc3nc(N4CCC(O[C@H]5C[C@H](N6CCN(c7ccc8c(c7F)[C@@H](C)N([C@@H]7CCC(=O)NC7=O)C8=O)[C@H](C)C6)C5)CC4)ncc3Cl)ccc2n(C(C)C)c1=O` (single isomer, unassigned) [Compound 31], the DC50 was under 10 nM.

Take `CNC(=O)COc1cc2cc(Nc3nc(N4CCC(O[C@H]5C[C@H](N6CCN(c7ccc8c(c7)n(C)c(=O)n8C7CCC(=O)NC7=O)CC6)C5)CC4)ncc3Cl)ccc2n(C(C)C)c1=O` (stereo partly drawn) [Compound 3, 2-({6-[(5-chloro-2-{4-[(1r,3r)-3-{4-[1-(2,6-dioxopiperidin-3-yl)-3-methyl-2-oxo-2,3-dihydro-1H-1,3-benzodiazol-5-yl]piperazin-1-yl}cyclobutoxy]piperidin-1-yl}pyrimidin-4-yl)amino]-2-oxo-1-(propan-2-yl)-1,2-dihydroquinolin-3-yl}oxy)-N-methylacetamide]: the 50% degradation concentration (DC50) is under 10 nM and the Dmax is at least 70%.

The compound `CNC(=O)COc1cc2cc(Nc3nc(N4CCC(O[C@H]5C[C@H](N6CCN(c7cc(OC)c8c(c7)n(C)c(=O)n8C7CCC(=O)NC7=O)CC6)C5)CC4)ncc3Cl)ccc2n(C(C)C)c1=O` (stereo partly drawn) [Compound 25, 2-({6-[(5-chloro-2-{4-[(1r,3r)-3-{4-[1-(2,6-dioxopiperidin-3-yl)-7-methoxy-3-methyl-2-oxo-2,3-dihydro-1H-1,3-benzodiazol-5-yl]piperazin-1-yl}cyclobutoxy]piperidin-1-yl}pyrimidin-4-yl)amino]-2-oxo-1-(propan-2-yl)-1,2-dihydroquinolin-3-yl}oxy)-N-methylacetamide] yielded a DC50 of under 10 nM.

Take `CNC(=O)COc1cc2cc(Nc3nc(N4CCN(C(=O)CC5(O)CCN(c6ccc7c(c6F)CN(C6CCC(=O)NC6=O)C7=O)CC5)CC4)ncc3Cl)ccc2n(C(C)C)c1=O` (stereo not drawn) [Compound 40, 2-{[6-({5-chloro-2-[4-(2-{1-[2-(2,6-dioxopiperidin-3-yl)-4-fluoro-1-oxo-3H-isoindol-5-yl]-4-hydroxypiperidin-4-yl}acetyl)piperazin-1-yl]pyrimidin-4-yl}amino)-1-isopropyl-2-oxoquinolin-3-yl]oxy}-N-methylacetamide]: the DC50 is under 10 nM and the Dmax is at least 70%.

In turn, `CNC(=O)COc1cc2cc(Nc3nc(N4CCC(O[C@H]5C[C@H](N6CCN(c7ccc8c(c7)n(C(C)C)c(=O)n8C7CCC(=O)NC7=O)CC6)C5)CC4)ncc3Cl)ccc2n(C(C)C)c1=O` (stereo partly drawn) [Compound 12, 2-({6-[(5-chloro-2-{4-[(1r,3r)-3-{4-[1-(2,6-dioxopiperidin-3-yl)-2-oxo-3-(propan-2-yl)-2,3-dihydro-1H-1,3-benzodiazol-5-yl]piperazin-1-yl}cyclobutoxy]piperidin-1-yl}pyrimidin-4-yl)amino]-2-oxo-1-(propan-2-yl)-1,2-dihydroquinolin-3-yl}oxy)-N-methylacetamide] returned a DC50 of under 10 nM and a Dmax of at least 70%.
